Assay results reported in US11064704B2, “Natural product formulations with improved residual insect repellent/deterrent activity” (University of Mississippi, priority 2016, dated 2021).

Test system: mosquitoes
Assay: in vivo direct skin application bioassay
Conditions: 12.5% application rate
Procedure: Direct skin application bioassays were conducted by using a powder-free latex glove (Diamond Grip, Microflex Corporation, Reno, Nev.). An opening of 3×4 cm was cut through the glove to fit on dorsal surface of the hand (FIG. 1). After wearing the glove, a wristband was used to avoid the biting on the hand near the border of the glove. Approximately, 500 (±5%), consisting primarily of females were transferred to a test cage (45×45×45 cm) using an aspirator. A series of dosages were tested to determine MED for repellency as well as residual activity against mosquitoes. A single test consisted of covering the hand of a volunteer with a powder-free latex glove and treating 12 cm^2 surface area, cut through the glove, on dorsal surface of the hand. Marked skin surface area was treated with the test compound in 50 μl of total volume. Because of constrain of man power, only one volunteer who was provided with a written informed consent participated in this study. A protocol approved by the University of Mississippi Human Use Institutional Review Board (IRB protocol #15-070) was followed.
The test started when the hand treated (3×4 cm area cut through the glove on the dorsal surface) with a test compound was inserted into the mosquito cage. […] Any treatment with […] females biting during 1 min test period was considered as “passed” whereas a treatment with ≥5 bites out of 500 mosquitoes was considered as “failed”. In case of passing the next lower and in case of failure next higher serial dose was tested to reach MED. Additionally, data on the residual repellent activity was recorded by exposing the treatments to the females after every 30 minutes until the treatment failed. Carrot essential oil, carotol and DEET and the mixtures were tested.
Direct skin application bioassays were conducted by using a powder-free latex glove (Diamond Grip™, Microflex Corporation, Reno, Nev.). An opening of 3×4 cm was cut through the glove to fit on the dorsal surface of the hand. After donning the glove, a wristband was used to avoid biting on the hand near the border of the glove. Approximately 500 (±5%) mosquitoes, consisting primarily of females, were transferred to a test cage (45×45×45 cm) using an aspirator. A series of dosages were tested to determine MED for repellency as well as residual activity against mosquitoes.
A single test consisted of covering the hand of a volunteer with a powder-free latex glove and treating a 12 cm^2 surface area, cut through the glove, on the dorsal surface of the hand. Marked skin surface area was treated with the test compound in 50 μl of total volume. Because of constraints of man power, only one volunteer who was provided with a written informed consent participated in this study. A protocol approved by the University of Mississippi Human Use Institutional Review Board (IRB Protocol #15-070) was followed.
The test started when the hand treated (3×4 cm area cut through the glove on the dorsal surface) with a test compound was inserted into the mosquito cage. […] Any treatment with ≤5 females biting during the 1 min test period was considered as “passed”, whereas a treatment with ≥5 bites out of 500 mosquitoes was considered as “failed”. In case of passing, the next lower, and in case of failure, the next higher, serial dose was tested to reach MED. Additionally, data on the residual repellent activity were recorded by exposing the treatments to the females after every 30 minutes until the treatment failed. Carrot seed essential oil, carotol, geranium and lemon Eucalyptus essential oils, DEET, picaridin and the mixtures were tested.

## CCCCCCCCCCC(=O)O [Undecanoic acid, undecanoic acid, reference compound]
  residual activity: time post application at which MED reached/crossed: 1.5 h
